This passage reports TGI and GI50 results from PubChem BioAssay (NCI).

Common to all, as to assay: NCI-60 cell line screen, 48 h
Experiment [1] has as its system ACHN renal.
Experiment [2] has as its system COLO 205 colon.
Experiment [3] relates to HOP-62 NSCLC.
Experiment [4] deals with KM12 colon.
Experiment [5] deals with NCI-H460 lung.
In experiment [6] the test system is NCI-H522 lung.
For experiment [7], the system named is OVCAR-3 ovarian.
In experiment [8] the test system is OVCAR-8 ovarian.
For experiment [9], the system named is 786-0 renal.
Experiment [10] deals with UO-31 renal.
Experiment [11] concerns MDA-MB-435.
Experiment [12] deals with PC-3 prostate.

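Interpolation was linear, between the two tested concentrations surrounding the appropriate level; five concentrations were tested over 48 hours in 96-well plates. Abbreviation: GI50, concentration required for 50% inhibition of growth. TGI is the concentration that stops growth completely.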

As to `O=C(NC(=O)c1cn(CCN2CCNCC2)c(=O)[nH]c1=O)OCc1ccccc1`, the TGI in experiment [1], in experiment [2], in experiment [3], in [4], in [5] and in experiment [6] was greater than 100 µM in each case. For the same compound, the TGI in [7] and in experiment [8] was greater than 100 µM each time.

As for `CN(C)C(=S)Nc1nnc(NC23CC4CC(CC(C4)C2)C3)s1`, the TGI in [9] worked out at 38.2 µM; in [1], 64 µM; in [2], 44.1 µM; in [3], 33.9 µM; in [4], 46 µM; in experiment [5] it was 26.8 µM. In addition, the TGI in experiment [6] was 34.9 µM; in experiment [7], 46.3 µM; in experiment [8], greater than 100 µM; in experiment [10], 25.2 µM.

On to `CC1=NN(c2nc(N)nc(CS(C)(=O)=O)n2)C(C)(C)C1`, for which the TGI in experiment [9], in experiment [1], in [2], in experiment [3], in [4] and in experiment [11] was greater than 100 µM each time. Besides, the TGI in [5], in experiment [8], in [12] and in [10] was greater than 100 µM each time.

With `Nc1[nH]c(=O)nc2sc3c(c12)CCCC3`, the TGI in experiment [9], in [1], in [2], in experiment [3], in experiment [4] and in experiment [5] was greater than 100 µM in each case. The TGI in [6], in [8], in experiment [12] and in [10] was greater than 100 µM each time.

As to `CSCCC(NC(=O)C(Cc1ccccc1)NC(=O)CNC(=O)CNC(=O)C(N)Cc1ccc(O)cc1)C(=O)O` (stereo unspecified), the TGI in experiment [2], in experiment [3], in experiment [4], in experiment [5], in experiment [6] and in [7] was greater than 100 µM throughout. In addition, the TGI in experiment [8] and in [10] was greater than 100 µM throughout.

For `COc1cc(/C=C2\C(=O)N(c3cccc(Cl)c3)C(c3ccccc3)S2(=O)=O)cc(OC)c1OC` (stereo unspecified), the TGI in experiment [9], in experiment [1], in experiment [2], in experiment [3], in [4] and in [11] was greater than 100 µM throughout. For the same compound, the TGI in [5] was greater than 100 µM; in experiment [6], 55.8 µM; in [7], greater than 100 µM; in experiment [8], greater than 100 µM; in experiment [10], greater than 100 µM.

`CN(C)c1cccc(-c2cc(=O)c3ccccc3[nH]2)c1`: the TGI in experiment [9], in experiment [1], in experiment [2], in [3], in [4] and in experiment [5] was greater than 100 µM in each case. Besides, the TGI in [6] is 57.6 µM; in experiment [7], greater than 100 µM; in [8], greater than 100 µM; in experiment [10], greater than 100 µM. The GI50 in [7] is 42.1 µM.

In the case of `C=CCn1c2ccccc2c2c(C)c3cnccc3c(C)c21`, the TGI in experiment [2] turned out to be 72.5 µM; in experiment [3], 36.3 µM; in [4] it was 83.9 µM; in experiment [5] it was 37.8 µM; in experiment [6] it was 37.2 µM; in [7], 48.6 µM. Also, the figures for the TGI in experiment [8] and in [10] were 40.4 µM and 32.8 µM, respectively.

Turning to `COC1/C=C\C=C(/C)C(=O)NC2=CC(=O)C=C(C2=O)C(OC)C(C)CC(OC)C(OC)C(C)/C=C(/C)C1OC(N)=O` (stereo unspecified), the TGI in [2] stood at 11.4 µM; in experiment [3], 8.05 µM; in [4] it was 20.1 µM; in experiment [5] it was 27.2 µM; in experiment [6], 1.1 µM; in experiment [7] it was 7.23 µM. The TGI is 5.62 µM in experiment [8] and 30 µM in experiment [10].

In the case of `C#CCNC(=O)CCC(N)C(=O)O` (stereo unspecified), the TGI in experiment [2], in [3], in experiment [4], in experiment [5], in [6] and in experiment [7] was greater than 100 µM throughout. In addition, the TGI in experiment [8] and in [10] was greater than 100 µM in each case.

For `CC(C)(O)[C@@H]1CCC(C)([C@H]2[C@@H](O)CC3(C)C4CC(OC5OC(CO)C(O)C(O)C5O)C5C(C)(C)[C@@H](OC6OCC(O)C(O)C6O)CC[C@@]56C[C@@]46CC[C@]23C)O1` (stereo partly specified), the TGI in experiment [9], in experiment [1], in experiment [2], in experiment [4], in experiment [5] and in experiment [6] was greater than 100 µM in each case. Moreover, the TGI in [7], in experiment [8] and in [10] was greater than 100 µM each time.

For the compound `CSc1ccc2c(c1)c(CCN)c(C)n2Cc1ccc(Cl)c(Cl)c1`, the GI50 in [1] was 1.59 µM; in [7], 1.7 µM; in [12] it was 1.67 µM; in [10] it was 1.59 µM. Besides, the TGI in experiment [1] was 3.08 µM; in experiment [7], 3.15 µM; in experiment [12], 3.11 µM; in experiment [10], 3.01 µM.

`OC1CN(OC/C=C/c2ccccc2)CC(O)C1O` (stereo unspecified): the TGI is 77 µM in experiment [9]; greater than 100 µM in experiment [1]; greater than 100 µM in experiment [2]; greater than 100 µM in experiment [3]; greater than 100 µM in experiment [4]; greater than 100 µM in [5]. The TGI in [7], in [8] and in experiment [10] was greater than 100 µM throughout.

`CN(C)c1nc(N(C)C)nc(N(C)CN(C)c2ccccc2)n1`: the TGI in experiment [1], in experiment [4], in experiment [5], in experiment [6], in experiment [7] and in [8] was greater than 100 µM throughout. Besides, in [10], the TGI was greater than 100 µM.

Turning to `COc1ccc2c(=O)c([Se]c3coc4cc(OC)ccc4c3=O)coc2c1`, the TGI in [9], in experiment [1], in experiment [2], in [3], in [4] and in [5] was greater than 100 µM each time. Also, the TGI in experiment [6], in experiment [7], in [8] and in [10] was greater than 100 µM each time.

For `CN1CCc2c(sc3nc(Nc4ccccc4)n(N)c(=O)c23)C1`, the TGI in experiment [9], in experiment [1], in experiment [2], in [3], in experiment [4] and in [5] was greater than 100 µM in each case. The TGI in [7], in experiment [8], in [12] and in [10] was greater than 100 µM in each case.

For the compound `CC(=O)OC1C=CC2CCN3C(=O)c4cc5c(cc4[C@H]1C23)OCO5` (stereo partly specified), the TGI in experiment [9], in experiment [1], in experiment [2], in experiment [3], in [4] and in experiment [5] was greater than 100 µM in each case. For the same compound, the TGI in experiment [6], in experiment [7], in [8] and in experiment [10] was greater than 100 µM throughout.

Take `CC(/C=C/c1ncccc1OCCCCCC(=O)O)=N\NC1=NCCN1`: the TGI in experiment [1], in experiment [2], in experiment [3], in experiment [4], in experiment [5] and in experiment [6] was greater than 100 µM each time. Besides, the TGI in experiment [7], in experiment [8] and in [10] was greater than 100 µM in each case.

Consider `CC(=O)OCC1C(C(C)OC(C)=O)CCC2C1CCC1(C)C(OC(C)=O)CCC21` (stereo unspecified), for which the TGI in [9] was 49.5 µM; in [1], 28.3 µM; in experiment [3] it was 38.5 µM; in experiment [4], 31.3 µM; in [11] it was 34.6 µM; in experiment [5], 31.8 µM. For the same compound, the TGI is 37.5 µM in [6], 41.9 µM in experiment [7], 46.2 µM in [8] and greater than 100 µM in experiment [10].

Consider `NC(=O)c1cnc2sc3ccccc3n2c1=O`, for which the TGI in experiment [9], in experiment [1], in experiment [2], in experiment [3], in [4] and in [5] was greater than 100 µM each time. In addition, the TGI in experiment [6], in experiment [7], in experiment [8], in experiment [12] and in [10] was greater than 100 µM each time.

`NCCCNCCSSCc1ccccc1CSSCCNCCCN`: the TGI was greater than 100 µM in experiment [1]; greater than 100 µM in experiment [2]; greater than 100 µM in experiment [3]; greater than 100 µM in experiment [4]; greater than 100 µM in experiment [5]; 26.7 µM in [6]. The TGI in experiment [7], in experiment [8] and in [10] was greater than 100 µM in each case.

For the compound `NS(=O)(=O)c1nnc(NC(=O)CCC(=O)O)s1`, the TGI in [9], in experiment [1], in [2], in experiment [3], in [4] and in experiment [11] was greater than 100 µM in each case. The TGI in experiment [5], in experiment [6], in experiment [7], in experiment [8] and in experiment [10] was greater than 100 µM each time.

For the compound `CCN(CC)CCN1C(=O)c2cccc3c(-c4ccc5c(c4)ncn5C4CCCCC4)ccc(c23)C1=O`, the GI50 was 1.16 µM in experiment [1]; 1.46 µM in [3]; 1.52 µM in experiment [4]; 1.68 µM in experiment [11]; 1.73 µM in experiment [7]; 1.75 µM in experiment [8]. For the same compound, the GI50 is 1.64 µM in [12] and 0.583 µM in experiment [10]. In addition, the TGI turned out to be 2.96 µM in experiment [1]; 3.05 µM in experiment [3]; 3.2 µM in experiment [4]; 3.22 µM in [11]; 3.64 µM in experiment [7]; 4.62 µM in experiment [8]. In addition, the TGI amounted to 4.66 µM in experiment [12] and 2.28 µM in [10].

For `Cc1ccc2nc3c(C(=O)NCCN(C)C)cccc3cc2c1`, the TGI in [2] came to 3.25 µM; in [3], 7.05 µM; in experiment [4], 12.6 µM; in experiment [5], 2.36 µM; in [7], 5.83 µM; in [8] it was 4.87 µM. Further, the TGI in [10] worked out at 2.96 µM.

`COCCO`: the TGI in [2], in [3], in experiment [4], in experiment [5], in experiment [6] and in experiment [7] was greater than 100 µM in each case. The TGI in experiment [8] and in [10] was greater than 100 µM each time.

Consider `COc1cc2cc3c4c(cc(OC)c(OC)c4c2cc1OC)CCN3C(=O)CCCC(=O)O`, for which the TGI in experiment [9], in [1], in [2], in experiment [3], in [4] and in experiment [5] was greater than 100 µM throughout. Besides, the TGI in experiment [6], in experiment [7] and in experiment [10] was greater than 100 µM in each case.

In the case of `N#CC12COC3(CCCCC3C1(C#N)C#N)OC2=N` (stereo unspecified), the TGI in experiment [9] is greater than 100 µM; in experiment [1], 30.1 µM; in [2], 19.2 µM; in [11], 64.7 µM; in experiment [5], 29.4 µM; in experiment [7] it was 23.1 µM. For the same compound, the figures for the TGI in experiment [12] and in [10] were 27.3 µM and 30.6 µM, respectively.

For `O=C1CCCCC/C=C2/CC[C@H](Sc3ccccc3)[C@@H]12`, the TGI in experiment [9], in experiment [1], in experiment [2], in experiment [3], in experiment [4] and in [5] was greater than 100 µM each time. Also, the TGI in [8] and in [10] was greater than 100 µM in each case.
